Values quoted from earlier work, collected in patent US20250161231A1, “LUTEIN FOR USE IN INHIBITING MAST CELL DEGRANULATION” (N.V. NUTRICIA, priority 2022, published 2025).

System: human mast cells
Conditions: literature, Int Arch Allergy Immunol 113, 335-336, 1997

Q: With `CC1=C(/C=C/C(C)=C/C=C/C(C)=C/C=C/C=C(C)/C=C/C=C(C)/C=C/C2=C(C)CCCC2(C)C)C(C)(C)CCC1` [beta-carotene] as the compound, how does the “inhibition of histamine release from human mast cells” value read?
A: dose-dependent inhibition
